{
  "source": "patent US20250320193A1",
  "about": "“OXOISOINDOLINYL SUBSTITUTED PIPERIDINEDIONE DERIVATIVE AND USE THEREOF” (GLUETACS THERAPEUTICS (SHANGHAI) CO., LTD., priority 2022, published 2025)",
  "assay_type_in_all_cases": "cell-based",
  "conditions_in_all_cases": "hPBMC, compound 500 nM, 24 hours, Western blot",
  "key": {"[1]": {"target": "IKZF1 (Homo sapiens (Human), UniProt Q13422+Q96SW2)", "sequence (Q13422 whole entry)": "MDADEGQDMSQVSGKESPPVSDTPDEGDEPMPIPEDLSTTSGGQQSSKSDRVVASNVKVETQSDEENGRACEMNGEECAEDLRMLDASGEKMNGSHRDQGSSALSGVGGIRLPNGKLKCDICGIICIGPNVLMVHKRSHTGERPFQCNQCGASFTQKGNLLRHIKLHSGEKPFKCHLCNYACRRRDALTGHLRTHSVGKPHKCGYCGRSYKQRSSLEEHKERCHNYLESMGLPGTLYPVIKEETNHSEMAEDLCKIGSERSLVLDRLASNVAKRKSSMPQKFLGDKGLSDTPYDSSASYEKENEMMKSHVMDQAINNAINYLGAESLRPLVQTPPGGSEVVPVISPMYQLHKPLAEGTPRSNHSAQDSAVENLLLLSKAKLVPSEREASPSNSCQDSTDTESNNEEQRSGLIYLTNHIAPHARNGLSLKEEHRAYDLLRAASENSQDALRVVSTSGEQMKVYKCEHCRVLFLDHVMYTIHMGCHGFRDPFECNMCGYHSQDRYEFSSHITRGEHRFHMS", "sequence (Q96SW2 whole entry)": "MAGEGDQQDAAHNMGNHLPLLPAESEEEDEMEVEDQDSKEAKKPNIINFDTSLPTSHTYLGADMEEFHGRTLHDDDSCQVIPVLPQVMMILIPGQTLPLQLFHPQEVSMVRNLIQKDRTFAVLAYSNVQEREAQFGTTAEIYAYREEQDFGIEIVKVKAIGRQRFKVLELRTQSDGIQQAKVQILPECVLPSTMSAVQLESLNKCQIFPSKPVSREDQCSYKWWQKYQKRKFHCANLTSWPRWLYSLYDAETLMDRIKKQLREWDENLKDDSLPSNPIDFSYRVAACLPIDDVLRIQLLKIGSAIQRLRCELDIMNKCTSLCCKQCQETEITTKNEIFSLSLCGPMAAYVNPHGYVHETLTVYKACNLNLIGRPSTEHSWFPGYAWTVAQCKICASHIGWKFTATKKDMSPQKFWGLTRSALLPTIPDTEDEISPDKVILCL", "sequence (Q16531 whole entry partner)": "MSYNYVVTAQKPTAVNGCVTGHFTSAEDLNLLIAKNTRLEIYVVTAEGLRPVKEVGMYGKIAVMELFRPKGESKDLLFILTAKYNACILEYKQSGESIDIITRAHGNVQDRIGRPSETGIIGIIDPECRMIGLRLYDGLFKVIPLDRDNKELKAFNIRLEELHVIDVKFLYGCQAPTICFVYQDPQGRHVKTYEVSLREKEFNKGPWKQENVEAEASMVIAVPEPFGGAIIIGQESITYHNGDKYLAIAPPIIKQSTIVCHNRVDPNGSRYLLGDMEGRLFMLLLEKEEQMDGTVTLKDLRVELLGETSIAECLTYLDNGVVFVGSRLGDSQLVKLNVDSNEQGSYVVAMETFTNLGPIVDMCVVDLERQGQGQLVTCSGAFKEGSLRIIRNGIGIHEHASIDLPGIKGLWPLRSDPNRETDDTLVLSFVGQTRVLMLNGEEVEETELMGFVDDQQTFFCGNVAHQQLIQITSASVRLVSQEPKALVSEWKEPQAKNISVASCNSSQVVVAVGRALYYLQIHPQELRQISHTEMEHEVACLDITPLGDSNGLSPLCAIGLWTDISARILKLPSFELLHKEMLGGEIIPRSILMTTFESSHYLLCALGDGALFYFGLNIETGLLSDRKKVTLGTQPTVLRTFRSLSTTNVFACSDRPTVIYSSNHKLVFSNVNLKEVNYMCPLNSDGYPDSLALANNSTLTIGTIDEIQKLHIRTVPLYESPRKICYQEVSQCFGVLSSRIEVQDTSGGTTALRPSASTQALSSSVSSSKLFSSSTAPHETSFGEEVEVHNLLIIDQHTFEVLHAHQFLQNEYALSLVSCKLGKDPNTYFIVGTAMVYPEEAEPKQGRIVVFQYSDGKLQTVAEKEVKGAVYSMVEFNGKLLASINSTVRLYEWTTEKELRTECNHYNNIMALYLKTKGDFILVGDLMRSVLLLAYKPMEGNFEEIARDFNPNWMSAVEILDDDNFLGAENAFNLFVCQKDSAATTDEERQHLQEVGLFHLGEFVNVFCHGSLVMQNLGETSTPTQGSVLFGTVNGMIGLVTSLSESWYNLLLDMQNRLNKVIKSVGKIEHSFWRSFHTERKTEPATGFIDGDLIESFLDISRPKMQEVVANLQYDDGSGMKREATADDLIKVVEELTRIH", "experiment": "Western blot, substrate protein expression in hPBMC: IKZF1", "procedure": "(§1) The effect of the compounds of the present disclosure on the expression of target proteins in cells was detected using conventional Western blot analysis.\n(§2) Human peripheral blood mononuclear cells (hPBMCs) at a density of 1×10^6 cells/mL were thawed according to the PBMC Recovery Protocol (Milecell Biotechnologies Inc, Shanghai). […] After 24 hours of compounds treatment, cells were harvested and lysed in RIPA protein lysate containing phosphatase inhibitors on ice for 30-60 min, followed by centrifugation. The supernatant was aspirated as the extracted total cell protein. The protein concentration of the supernatant was determined using the conventional BCA (Bicinchoninic Acid) assay. The supernatant was then mixed with 4× SDS sample loading buffer, denatured at 95° C. for 5 minutes, and then subjected to SDS-PAGE electrophoresis on a polyacrylamide gel. Proteins were then transferred to a nitrocellulose (NC) membrane, blocked at room temperature for 1-2 h, and processed for antibody incubation and detection according to the manufacturer's instructions (Cell Signaling Technology).\n(§3) Half-Maximal Degradation Concentration value (the drug concentration required for degrading proteins by 50%, abbreviated as DC50) reads method: comparing the grayscale values of Western blot bands from drug-treated samples (protein degrader compounds) with those from blank (DMSO-treated) controls, and identifying the drug concentration range at which the grayscale value is half that of the DMSO-treated control bands.\n(§4) DC50 values can be calculated using ImageJ software to measure grayscale values of Western blot bands from drug-treated samples. The relationship curve between drug concentration and grayscale values is fitted to estimate the drug concentration corresponding to half the grayscale value.\n(§5) Target protein remaining (%) refers to the percentage of target protein remaining in hPBMC cells after treatment with protein degrader compounds.\n(§6) Calculation method for protein remaining (%): Use ImageJ software to measure grayscale values of Western blot bands from drug (protein degrader)-treated samples. The grayscale value of drug-treated bands is divided by that of internal control protein bands, and the resulting quotient is normalized to obtain the relative percentage of remaining target protein after protein degrader treatment.\n(§7) Target protein degradation rate (%)=100%-target protein remaining (%)."}, "[2]": {"target": "IKZF3 (Homo sapiens (Human), UniProt Q96SW2+Q9UKT9)", "sequence (Q9UKT9 whole entry)": "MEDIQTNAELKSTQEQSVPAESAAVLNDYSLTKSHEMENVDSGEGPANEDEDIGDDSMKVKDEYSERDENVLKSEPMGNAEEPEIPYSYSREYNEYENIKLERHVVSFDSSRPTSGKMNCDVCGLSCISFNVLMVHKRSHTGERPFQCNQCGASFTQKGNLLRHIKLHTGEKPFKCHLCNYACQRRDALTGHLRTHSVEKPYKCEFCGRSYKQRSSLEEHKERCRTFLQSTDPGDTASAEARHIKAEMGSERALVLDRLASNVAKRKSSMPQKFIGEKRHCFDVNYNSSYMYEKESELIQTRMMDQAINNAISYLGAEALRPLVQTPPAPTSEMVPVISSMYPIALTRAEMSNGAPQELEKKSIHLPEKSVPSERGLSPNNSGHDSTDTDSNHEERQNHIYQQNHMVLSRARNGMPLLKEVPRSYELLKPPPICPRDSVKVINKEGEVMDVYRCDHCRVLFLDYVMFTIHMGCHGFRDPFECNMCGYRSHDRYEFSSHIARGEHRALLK", "sequence (Q96SW2 whole entry)": "as the sequence (Q96SW2 whole entry) above", "sequence (Q16531 whole entry partner)": "as the sequence (Q16531 whole entry partner) above", "experiment": "Western blot, substrate protein expression in hPBMC: IKZF3", "procedure": "as §1, §2, §3, §4, §5, §6, §7"}, "[3]": {"target": "GSPT1 (Homo sapiens (Human), UniProt P15170+Q96SW2)", "sequence (P15170 whole entry)": "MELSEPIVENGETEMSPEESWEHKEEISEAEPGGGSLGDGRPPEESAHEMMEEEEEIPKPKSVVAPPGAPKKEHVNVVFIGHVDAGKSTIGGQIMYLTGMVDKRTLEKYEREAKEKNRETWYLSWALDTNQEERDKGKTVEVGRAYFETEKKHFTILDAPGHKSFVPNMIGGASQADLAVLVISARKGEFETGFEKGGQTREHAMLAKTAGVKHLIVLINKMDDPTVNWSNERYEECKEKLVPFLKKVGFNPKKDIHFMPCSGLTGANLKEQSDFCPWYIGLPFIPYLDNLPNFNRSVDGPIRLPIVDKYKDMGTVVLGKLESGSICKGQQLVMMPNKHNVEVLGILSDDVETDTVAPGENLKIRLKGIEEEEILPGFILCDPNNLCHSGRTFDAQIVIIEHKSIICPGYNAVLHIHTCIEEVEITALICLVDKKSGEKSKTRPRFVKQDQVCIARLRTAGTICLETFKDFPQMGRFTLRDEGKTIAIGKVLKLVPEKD", "sequence (Q96SW2 whole entry)": "as the sequence (Q96SW2 whole entry) above", "sequence (Q16531 whole entry partner)": "as the sequence (Q16531 whole entry partner) above", "experiment": "Western blot, substrate protein expression in hPBMC: GSPT1", "procedure": "as §1, §2, §3, §4, §5, §6, §7"}},
  "data": [
    {"smiles": "O=C1CCC(N2C(=O)c3ccc(C(=O)N4CCN(C(c5ccccn5)c5ccccn5)CC4)cc3C2=O)C(=O)N1", "note": "(stereo not drawn) [GT-05880, 5-(4-(di(pyridin-2-yl)methyl)piperazine-1-carbonyl)-2-(2,6-dioxopiperidin-3-yl) isoindoline-1,3-dione]", "values": [
      {"measurement": "substrate protein remaining % IKZF1", "setting": "[1]", "value": "B (B represents substrate protein remaining % > 50%)"},
      {"measurement": "substrate protein remaining % IKZF3", "setting": "[2]", "value": "B (B represents substrate protein remaining % > 50%)"},
      {"measurement": "substrate protein remaining % GSPT1", "setting": "[3]", "value": "A (A represents 0% ≤ substrate protein remaining % ≤ 50%)"}
    ]},
    {"smiles": "O=C1CCC(N2C(=O)c3ccc(C(=O)N4CCN(C(c5ccc(F)cc5)c5ccc(F)cc5)CC4)cc3C2=O)C(=O)N1", "note": "(stereo not drawn) [GT-05885, 5-(4-(bis(4-fluorophenyl)methyl)piperazine-1-carbonyl)-2-(2,6-dioxopiperidin-3-yl) isoindoline-1,3-dione]", "values": [
      {"measurement": "substrate protein remaining % IKZF1", "setting": "[1]", "value": "B (B represents substrate protein remaining % > 50%)"},
      {"measurement": "substrate protein remaining % IKZF3", "setting": "[2]", "value": "B (B represents substrate protein remaining % > 50%)"},
      {"measurement": "substrate protein remaining % GSPT1", "setting": "[3]", "value": "A (A represents 0% ≤ substrate protein remaining % ≤ 50%)"}
    ]},
    {"smiles": "O=C1CCC(N2C(=O)c3ccc(C(=O)N4CCN(C(c5ccc(Cl)cc5)c5ccc(Cl)cc5)CC4)cc3C2=O)C(=O)N1", "note": "(stereo not drawn) [GT-05890, 5-(4-(bis(4-chlorophenyl)methyl)piperazine-1-carbonyl)-2-(2,6-dioxopiperidin-3-yl) isoindoline-1,3-dione]", "values": [
      {"measurement": "substrate protein remaining % IKZF1", "setting": "[1]", "value": "B (B represents substrate protein remaining % > 50%)"},
      {"measurement": "substrate protein remaining % IKZF3", "setting": "[2]", "value": "B (B represents substrate protein remaining % > 50%)"},
      {"measurement": "substrate protein remaining % GSPT1", "setting": "[3]", "value": "A (A represents 0% ≤ substrate protein remaining % ≤ 50%)"}
    ]},
    {"smiles": "O=C1CCC(N2Cc3cc(C(=O)N4C5CC4CN(C(c4ccccc4)c4ccccc4)C5)ccc3C2=O)C(=O)N1", "note": "(stereo not drawn) [GT-05891, 3-(5-(3-benzhydryl-3,6-diazabicyclo[3.1.1]heptane-6-carbonyl)-1-oxoisoindolin-2-yl)piperidine-2,6-dione]", "values": [
      {"measurement": "substrate protein remaining % IKZF1", "setting": "[1]", "value": "B (B represents substrate protein remaining % > 50%)"},
      {"measurement": "substrate protein remaining % IKZF3", "setting": "[2]", "value": "B (B represents substrate protein remaining % > 50%)"},
      {"measurement": "substrate protein remaining % GSPT1", "setting": "[3]", "value": "A (A represents 0% ≤ substrate protein remaining % ≤ 50%)"}
    ]},
    {"smiles": "O=C1CCC(N2Cc3cc(C(=O)N4CCCN(C(c5ccccc5)c5ccccc5)CC4)ccc3C2=O)C(=O)N1", "note": "(stereo not drawn) [GT-05892, 3-(5-(4-benzhydryl-1,4-diazepane-1-carbonyl)-1-oxoisoindolin-2-yl)piperidine-2,6-dione]", "values": [
      {"measurement": "substrate protein remaining % IKZF1", "setting": "[1]", "value": "B (B represents substrate protein remaining % > 50%)"},
      {"measurement": "substrate protein remaining % IKZF3", "setting": "[2]", "value": "B (B represents substrate protein remaining % > 50%)"},
      {"measurement": "substrate protein remaining % GSPT1", "setting": "[3]", "value": "A (A represents 0% ≤ substrate protein remaining % ≤ 50%)"}
    ]},
    {"smiles": "O=C1CCC(N2C(=O)c3ccc(CN4CCN(C5c6ccccc6-c6ccccc65)CC4)cc3C2=O)C(=O)N1", "note": "(stereo not drawn) [GT-05908, 5-((4-(9H-fluoren-9-yl)piperazin-1-yl)methyl)-2-(2,6-dioxopiperidin-3-yl) isoindoline-1,3-dione]", "values": [
      {"measurement": "substrate protein remaining % IKZF1", "setting": "[1]", "value": "A (A represents 0% ≤ substrate protein remaining % ≤ 50%)"},
      {"measurement": "substrate protein remaining % IKZF3", "setting": "[2]", "value": "A (A represents 0% ≤ substrate protein remaining % ≤ 50%)"},
      {"measurement": "substrate protein remaining % GSPT1", "setting": "[3]", "value": "A (A represents 0% ≤ substrate protein remaining % ≤ 50%)"}
    ]},
    {"smiles": "O=C1CCC(N2C(=O)c3ccc(C(=O)N4CCC(N(c5ccccc5)c5ccccn5)CC4)cc3C2=O)C(=O)N1", "note": "(stereo not drawn) [GT-05925, 2-(2,6-dioxopiperidin-3-yl)-5-(4-(phenyl(pyridin-2-yl)amino)piperidine-1-carbonyl) isoindoline-1,3-dione]", "values": [
      {"measurement": "substrate protein remaining % IKZF1", "setting": "[1]", "value": "B (B represents substrate protein remaining % > 50%)"},
      {"measurement": "substrate protein remaining % IKZF3", "setting": "[2]", "value": "B (B represents substrate protein remaining % > 50%)"},
      {"measurement": "substrate protein remaining % GSPT1", "setting": "[3]", "value": "A (A represents 0% ≤ substrate protein remaining % ≤ 50%)"}
    ]},
    {"smiles": "O=C1CCC(N2C(=O)c3ccc(C(=O)N4CCC(N(c5ccccc5)c5ccccc5)CC4)cc3C2=O)C(=O)N1", "note": "(stereo not drawn) [GT-05928, 2-(2,6-dioxopiperidin-3-yl)-5-(4-(diphenylamino)piperidine-1-carbonyl) isoindoline-1,3-dione]", "values": [
      {"measurement": "substrate protein remaining % IKZF1", "setting": "[1]", "value": "B (B represents substrate protein remaining % > 50%)"},
      {"measurement": "substrate protein remaining % IKZF3", "setting": "[2]", "value": "B (B represents substrate protein remaining % > 50%)"},
      {"measurement": "substrate protein remaining % GSPT1", "setting": "[3]", "value": "A (A represents 0% ≤ substrate protein remaining % ≤ 50%)"}
    ]},
    {"smiles": "O=C1CCC(N2C(=O)c3cc(F)c(N4C5CCC4CN(C(c4ccccc4)c4ccccc4)C5)cc3C2=O)C(=O)N1", "note": "(stereo not drawn) [GT-05932, 5-(3-benzhydryl-3,8-diazabicyclo[3.2.1]octan-8-yl)-2-(2,6-dioxopiperidin-3-yl)-6-fluoroisoindoline-1,3-dione]", "values": [
      {"measurement": "substrate protein remaining % IKZF1", "setting": "[1]", "value": "B (B represents substrate protein remaining % > 50%)"},
      {"measurement": "substrate protein remaining % IKZF3", "setting": "[2]", "value": "B (B represents substrate protein remaining % > 50%)"},
      {"measurement": "substrate protein remaining % GSPT1", "setting": "[3]", "value": "A (A represents 0% ≤ substrate protein remaining % ≤ 50%)"}
    ]},
    {"smiles": "O=C1CCC(N2C(=O)c3cc(F)c(N4CC5CC(C4)N5C(c4ccccc4)c4ccccc4)cc3C2=O)C(=O)N1", "note": "(stereo not drawn) [GT-05934, 5-(6-benzhydryl-3,6-diazabicyclo[3.1.1]heptan-3-yl)-2-(2,6-dioxopiperidin-3-yl)-6-fluoroisoindoline-1,3-dione]", "values": [
      {"measurement": "substrate protein remaining % IKZF1", "setting": "[1]", "value": "B (B represents substrate protein remaining % > 50%)"},
      {"measurement": "substrate protein remaining % IKZF3", "setting": "[2]", "value": "A (A represents 0% ≤ substrate protein remaining % ≤ 50%)"},
      {"measurement": "substrate protein remaining % GSPT1", "setting": "[3]", "value": "A (A represents 0% ≤ substrate protein remaining % ≤ 50%)"}
    ]},
    {"smiles": "O=C1CCC(N2C(=O)c3ccc(N4C5CCC4CN(C(c4ccccc4)c4ccccc4)C5)cc3C2=O)C(=O)N1", "note": "(stereo not drawn) [GT-05937, 5-(3-benzhydryl-3,8-diazabicyclo[3.2.1]octan-8-yl)-2-(2,6-dioxopiperidin-3-yl) isoindoline-1,3-dione]", "values": [
      {"measurement": "substrate protein remaining % IKZF1", "setting": "[1]", "value": "B (B represents substrate protein remaining % > 50%)"},
      {"measurement": "substrate protein remaining % IKZF3", "setting": "[2]", "value": "B (B represents substrate protein remaining % > 50%)"},
      {"measurement": "substrate protein remaining % GSPT1", "setting": "[3]", "value": "A (A represents 0% ≤ substrate protein remaining % ≤ 50%)"}
    ]},
    {"smiles": "O=C1CCC(N2C(=O)c3ccc(N4C5CC4CN(C(c4ccccc4)c4ccccc4)C5)cc3C2=O)C(=O)N1", "note": "(stereo not drawn) [GT-05938, 5-(3-benzhydryl-3,6-diazabicyclo[3.1.1]heptan-6-yl)-2-(2,6-dioxopiperidin-3-yl) isoindoline-1,3-dione]", "values": [
      {"measurement": "substrate protein remaining % IKZF1", "setting": "[1]", "value": "B (B represents substrate protein remaining % > 50%)"},
      {"measurement": "substrate protein remaining % IKZF3", "setting": "[2]", "value": "B (B represents substrate protein remaining % > 50%)"},
      {"measurement": "substrate protein remaining % GSPT1", "setting": "[3]", "value": "A (A represents 0% ≤ substrate protein remaining % ≤ 50%)"}
    ]},
    {"smiles": "O=C1CCC(N2C(=O)c3ccc(CN4C[C@H]5C[C@@H]4CN5C(c4ccccc4)c4ccccc4)cc3C2=O)C(=O)N1", "note": "(stereo partly drawn) [GT-05959, 5-(((1R,4R)-5-benzhydryl-2,5-diazabicyclo[2.2.1]heptan-2-yl)methyl)-2-(2,6-dioxopiperidin-3-yl) isoindoline-1,3-dione]", "values": [
      {"measurement": "substrate protein remaining % IKZF1", "setting": "[1]", "value": "B (B represents substrate protein remaining % > 50%)"},
      {"measurement": "substrate protein remaining % IKZF3", "setting": "[2]", "value": "B (B represents substrate protein remaining % > 50%)"},
      {"measurement": "substrate protein remaining % GSPT1", "setting": "[3]", "value": "A (A represents 0% ≤ substrate protein remaining % ≤ 50%)"}
    ]},
    {"smiles": "CC1CN(Cc2ccc3c(c2)C(=O)N(C2CCC(=O)NC2=O)C3=O)CC(C)N1C(c1ccccc1)c1ccccc1", "note": "(stereo not drawn) [GT-05968, 5-((4-benzhydryl-3,5-dimethylpiperazin-1-yl)methyl)-2-(2,6-dioxopiperidin-3-yl) isoindoline-1,3-dione]", "values": [
      {"measurement": "substrate protein remaining % IKZF1", "setting": "[1]", "value": "B (B represents substrate protein remaining % > 50%)"},
      {"measurement": "substrate protein remaining % IKZF3", "setting": "[2]", "value": "B (B represents substrate protein remaining % > 50%)"},
      {"measurement": "substrate protein remaining % GSPT1", "setting": "[3]", "value": "A (A represents 0% ≤ substrate protein remaining % ≤ 50%)"}
    ]}
  ]
}
